Converted amounts (≈) assume the structure as drawn.
Tests used:
[1] = system: Mycobacterium tuberculosis; assay: Antibacterial activity against Mycobacterium tuberculosis assessed as reduction in resistance generation frequency; format: functional
[2] = system: Mycobacterium tuberculosis; assay: Antibacterial activity against extensively drug-resistant Mycobacterium tuberculosis clinical isolate assessed as inhibition of bacterial growth in presence of SMARt-420; format: functional
[3] = system: Mycobacterium tuberculosis; assay: Antibacterial activity against Mycobacterium tuberculosis Erdman (TMCC 107) in Mtb infection C3HeB/FeJ mouse model assessed as reduction in resistance generation frequency administered for 8 weeks relative to control; format: functional; set-up: scale not given: the % may be the effect or the level left
[4] = system: Mycobacterium tuberculosis; assay: Antibacterial activity against multidrug-resistant Mycobacterium tuberculosis clinical isolate assessed as inhibition of bacterial growth in presence of SMARt-420; format: functional
[5] = system: Mycobacterium tuberculosis; assay: Antibacterial activity against Mycobacterium tuberculosis Erdman (TMCC 107) assessed as reduction in resistance generation frequency; format: functional
[6] = system: Mycobacterium tuberculosis; assay: Antibacterial activity against Ethionamide-resistant Mycobacterium tuberculosis Beijing strain in acute Mtb infection BALB/c mouse model assessed as reduction in log10 CFU in lungs at 50 mg/kg, po for 3 weeks in presence of Ethionamide; format: functional
[7] = system: Mycobacterium tuberculosis; assay: microbe, parasite or virus in culture
[8] = system: Mycobacterium tuberculosis; assay: microbe, parasite or virus in culture; remark: listed apart in the source
[9] = system: Mycobacterium tuberculosis; assay: Antibacterial activity against EMB-resistant Mycobacterium tuberculosis assessed as inhibition of bacterial growth; format: functional

With `Cc1ccn(C(C)c2nnc(Nc3ccn(Cc4c(F)cccc4Cl)n3)s2)n1` (stereo not drawn) the Activity [1] was 4 10^-8No_unit.

Compound `CCNC(=N)NC(=O)Nc1c(CC)cccc1CC` has an Activity [1] of over 1.5 log10CFU.

`Cc1n[nH]c2ccc(NS(=O)(=O)CCCCF)cc12` was tested, and the Activity [1] was 6 10^-8No_unit.

In the case of `CCS(=O)(=O)N1N=Cc2ccc(Oc3ccc(C(F)(F)F)cc3/C=N/O)cc2B1O`, the MIC [2] is reported as 0.15 µM, the Activity [3] is reported as 0.04% and the MIC [4] is reported as 0.15 µM. For the same compound, the Activity [5] was 4 10^-7No_unit.

`O=C(CCC(F)(F)F)N1CCC2(CC1)CC(c1ccccc1)=NO2` was tested, and the Activity [6] was 4 log10CFU.

For `CCc1cc(C(N)=S)ccn1` [ETHIONAMIDE], the MIC [7] was 48 µM (≈ 7.98 µg/mL) and the MIC [8] was 48 µM (≈ 7.98 µg/mL).

For `NNC(=O)c1ccncc1` [ISONIAZID], the Activity [3] was 29% and the Activity [1] was 4 10^-5No_unit.

For `CC(C)=CCC/C(C)=C/CNCCNC1C2CC3CC(C2)CC1C3` (stereo not drawn) [SQ109], the MIC [9] was 2.4 µM (≈ 0.793 µg/mL).

Reference: ChEMBL document CHEMBL5137025, “Tuberculosis Drug Discovery: Challenges and New Horizons” (J Med Chem, 2022)
